Reference: patent US9278950B2, “Bicyclic aromatic carboxamide compounds useful as Pim kinase inhibitors” (Incyte Corporation, priority 2013, dated 2016)

Experiments:
Assay type in all cases: biochemical
Pim-1 = target: T1, Pim-1 (Homo sapiens, UniProt P11309); test: Pim-1 kinase assay (Pim enzyme assays, Example A); settings: 1 mM ATP; read-out: Pim1 IC50
T1 construct: purchased Invitrogen PV3503
Experimental: (§1) Pim-1 and Pim-3 kinase assays-20 μL reactions were run in white 384 well polystyrene plates dotted with 0.8 μL compound/DMSO in the assay buffer (50 mM Tris, pH 7.5, 0.01% Tween-20, 5 mM mgCl2, 0.01% BSA, 5 mM DTT), containing 0.05 μM Biotin-labeled BAD peptide substrate (AnaSpec 62269), 1 mM ATP, and […] (Pim-1, Invitrogen PV3503) or […] (Pim-3, Millipore 14-738) enzyme for 1 h at 25° C. Reactions were stopped by addition of 10 μL STOP Buffer (150 mM Tris, pH=7.5, 150 mM NaCl, 75 mM EDTA, 0.01% Tween-20, 0.3% BSA,) supplemented with Phospho-Bad (Ser 12) Antibody (Cell Signaling 9291) diluted 666-fold, and Streptavidin donor beads (PerkinElmer 6760002) along with Protein-A acceptor beads (PerkinElmer 6760137) at 15 μg/mL each. Supplementation of the STOP buffer with beads and stopping the reactions were done under reduced light. Prior to the stopping reactions STOP buffer with beads was preincubated for 1 h in the dark at room temperature. After stopping the reactions, plates were incubated for 1 h in the dark at room temperature before reading on a PHERAstar FS plate reader (BMG Labtech) under reduced light.

Pim2 = target: T2, Pim2 (Homo sapiens, UniProt Q9P1W9); test: Pim-2 kinase assay (Pim enzyme assays, Example A); settings: 1 mM ATP; read-out: Pim2 IC50
T2 construct: purchased Invitrogen PV3649
T2 sequence (Q9P1W9 whole entry): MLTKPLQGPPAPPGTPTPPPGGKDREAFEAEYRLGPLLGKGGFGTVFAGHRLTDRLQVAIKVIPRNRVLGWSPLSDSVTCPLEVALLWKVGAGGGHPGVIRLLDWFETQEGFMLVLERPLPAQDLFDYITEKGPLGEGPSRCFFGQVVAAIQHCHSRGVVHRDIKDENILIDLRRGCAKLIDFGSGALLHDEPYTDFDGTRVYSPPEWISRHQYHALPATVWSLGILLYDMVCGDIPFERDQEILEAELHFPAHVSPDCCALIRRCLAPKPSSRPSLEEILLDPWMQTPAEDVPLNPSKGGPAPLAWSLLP
Experimental: Pim-2 kinase assay—20 μL reactions were run in white 384 well polystyrene plates dotted with 0.8 μL compound/DMSO in the assay buffer (50 mM Tris, pH 7.5, 0.01% Tween-20, 5 mM mgCl2, 0.01% BSA, 5 mM DTT), containing 0.05 μM Fluorescein-labeled CREBtide peptide substrate (Invitrogen PV3508), 1 mM ATP, and 1 nM enzyme (Invitrogen PV3649) for 2 h at 25° C. Reactions were stopped by addition of 10 μL TR-FRET Dilution Buffer (Invitrogen PV3574) with 30 mM EDTA and 1.5 nM LanthaScreen Tb-CREB pSer133 antibody (Invitrogen PV3566). After 30 min. incubation at room temperature, plates were read on a PHERAstar FS plate reader (BMG Labtech).

Pim-3 = target: T3, Pim-3 (Homo sapiens, UniProt Q86V86); test: Pim-3 kinase assay (Pim enzyme assays, Example A); settings: 1 mM ATP; read-out: Pim3 IC50
T3 construct: purchased Millipore 14-738
Experimental: as §1

T1 sequence (P11309 whole entry): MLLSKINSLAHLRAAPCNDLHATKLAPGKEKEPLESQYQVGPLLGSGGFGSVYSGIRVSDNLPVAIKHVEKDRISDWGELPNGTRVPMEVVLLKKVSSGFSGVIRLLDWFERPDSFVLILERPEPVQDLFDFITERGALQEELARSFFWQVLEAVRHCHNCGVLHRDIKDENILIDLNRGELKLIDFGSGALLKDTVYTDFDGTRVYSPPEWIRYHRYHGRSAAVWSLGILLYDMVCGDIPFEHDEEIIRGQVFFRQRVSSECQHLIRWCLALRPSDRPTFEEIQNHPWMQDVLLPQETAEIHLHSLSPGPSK

IC50 (Pim-1)	IC50 (Pim2)	IC50 (Pim-3)	SMILES
≤ 100 nM	≤ 100 nM	≤ 100 nM	C[C@H]1CN(c2ccncc2NC(=O)c2nc3cc(N4CCN(C)C(=O)C4)ccc3cc2N)C[C@@H](N)[C@@H]1O [Example 48, 3-Amino-N-{4-[(3R,4R,5S)-3-amino-4-hydroxy-5-methylpiperidin-1-yl]pyridin-3-yl}-7-(4-methyl-3-oxopiperazin-1-yl)quinoline-2-carboxamide]
≤ 100 nM	100 to 1000 nM	≤ 100 nM	C[C@H]1CN(c2ccncc2NC(=O)c2nc3cc(N4CCCCC4=O)ccc3cc2N)C[C@@H](N)[C@@H]1O [Example 49, 3-Amino-N-{4-[(3R,4R,5S)-3-amino-4-hydroxy-5-methylpiperidin-1-yl]pyridin-3-yl}-7-(2-oxopiperidin-1-yl)quinoline-2-carboxamide]
≤ 100 nM	100 to 1000 nM	≤ 100 nM	C[C@@H]1C[C@H](N)CN(c2ccncc2NC(=O)c2nc3cc(N4CCOCC4=O)ccc3cc2N)C1 [Example 50, 3-Amino-N-{4-[(3S,5R)-3-amino-5-methylpiperidin-1-yl]pyridin-3-yl}-7-(3-oxomorpholin-4-yl)quinoline-2-carboxamide]
≤ 100 nM	1000 to 10000 nM	≤ 100 nM	C[C@H]1CN(c2ccncc2NC(=O)c2nc3cc(N4CCOCC4=O)ccc3cc2N)C[C@@H](N)[C@@H]1O [Example 51, 3-Amino-N-{4-[(3R,4R,5S)-3-amino-4-hydroxy-5-methylpiperidin-1-yl]pyridin-3-yl}-7-(3-oxomorpholin-4-yl)quinoline-2-carboxamide]
≤ 100 nM	> 2000 nM	≤ 100 nM	C[C@H]1CN(c2ccncc2NC(=O)c2nc3cc(N4CCN(C)C(=O)C4)ccc3cc2N)C[C@@H](N)[C@H]1n1ccnn1 [Example 52, 3-Amino-N-{4-[(3R,4S,5S)-3-amino-5-methyl-4-(1H-1,2,3-triazol-1-yl)piperidin-1-yl]pyridin-3-yl}-7-(4-methyl-3-oxopiperazin-1-yl)quinoline-2-carboxamide]
≤ 100 nM	1000 to 10000 nM	≤ 100 nM	C[C@H]1CN(c2ccncc2NC(=O)c2nc3cc(C4CCOCC4)ccc3cc2N)C[C@@H](N)[C@H]1n1ccnn1 [Example 53, 3-Amino-N-{4-[(3R,4S,5S)-3-amino-5-methyl-4-(1H-1,2,3-triazol-1-yl)piperidin-1-yl]pyridin-3-yl}-7-(tetrahydro-2H-pyran-4-yl)quinoline-2-carboxamide]
≤ 100 nM	> 2000 nM	≤ 100 nM	C[C@H]1CN(c2ccncc2NC(=O)c2nc3cc(N4CCN(C)CC4)ccc3cc2N)C[C@@H](N)[C@H]1n1ccnn1 [Example 54, 3-Amino-N-{4-[(3R,4S,5S)-3-amino-5-methyl-4-(1H-1,2,3-triazol-1-yl)piperidin-1-yl]pyridin-3-yl}-7-(4-methylpiperazin-1-yl)quinoline-2-carboxamide]
≤ 100 nM	> 2000 nM	≤ 100 nM	C[C@H]1CN(c2ccncc2NC(=O)c2nc3cc(N4CCOCC4)ccc3cc2N)C[C@@H](N)[C@H]1n1ccnn1 [Example 55, 3-Amino-N-{4-[(3R,4S,5S)-3-amino-5-methyl-4-(1H-1,2,3-triazol-1-yl)piperidin-1-yl]pyridin-3-yl}-7-morpholin-4-ylquinoline-2-carboxamide]
≤ 100 nM	1000 to 10000 nM	≤ 100 nM	C[C@H]1CN(c2ccncc2NC(=O)c2nc3cc(C4CCN(C)CC4)ccc3cc2N)C[C@@H](N)[C@H]1n1ccnn1 [Example 56, 3-Amino-N-{4-[(3R,4S,5S)-3-amino-5-methyl-4-(1H-1,2,3-triazol-1-yl)piperidin-1-yl]pyridin-3-yl}-7-(1-methylpiperidin-4-yl)quinoline-2-carboxamide]
≤ 100 nM	100 to 1000 nM	≤ 100 nM	CCc1ccc2cc(N)c(C(=O)Nc3cnccc3N3C[C@@H](N)[C@@H](n4ccnn4)[C@@H](C)C3)nc2c1 [Example 57, 3-Amino-N-{4-[(3R,4S,5S)-3-amino-5-methyl-4-(1H-1,2,3-triazol-1-yl)piperidin-1-yl]pyridin-3-yl}-7-ethylquinoline-2-carboxamide]
